Results on two compounds are retold here after patent US12173088B2, “Anti-microbial peptides” (priority 2018, dated 2024).

Converted amounts (≈) assume the structure as drawn. Square brackets hold non-standard residues; d marks the D form. Peptide text beside a SMILES is read from it.

One data set in a line: Hemolytic assay. The class given is cell-based, human. The conditions noted are these: human, human red blood cells, 2% (v/v). A digest of the protocol: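 HL50 marks the peptide level lysing half of a 2% (v/v) suspension of washed human erythrocytes after 1 h at 37 °C. Released hemoglobin measured at 545 nm, scaled between PBS (0%) and Triton X-100 (2% or 1%; 100%). Selectivity index computed as HL50 over MIC.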

A further data set relates to P. aeruginosa PAO1. The class given is cell-based, Pseudomonas aeruginosa. To be noted: PAO1. A digest of the protocol:
(§1)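 Broth microdilution in tryptic soy broth: log-phase cultures (OD600 ≈0.5) diluted to OD600 0.001, given two-fold peptide dilutions, incubated overnight at 37° C. Growth read at 630 nm.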

For a further data set, the system named is S. aureus M838-17 (MRSA). The experiment in a line: microbe, parasite or virus in culture. To be noted: M838-17; read-out: MIC S. aureus M838-17 (MRSA). The class given is cell-based, Staphylococcus aureus. A digest of the protocol: (§2)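 Peptides were serially diluted two-fold against bacteria grown in tryptic soy broth to log phase (OD600 ≈0.5), then seeded at OD600 0.001. Plates were held overnight at 37° C and read at 630 nm. USA300 was also tested at pH 6.8, 7.2 and 8.0, with 150 mM NaCl or 5-10% serum, plasma or peritoneal fluid.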

In data set [1] the test system is S. aureus USA300. The data set can be described thus: microbe, parasite or virus in culture. Format: cell-based, Staphylococcus aureus. A digest of the protocol: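 Broth microdilution: log-phase cultures in tryptic soy broth diluted to OD600 0.001, exposed to two-fold diluted peptides at 37° C overnight, growth read at 630 nm. Medium effects on S. aureus USA300 tested with up to 200 mM NaCl, 2 mM CaCl2, 5-10% human serum, mouse plasma, fluids or tissue homogenate supernatants.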

Data set [2] relates to trypsin, chymotrypsin, S. aureus V8 protease, Proteinase K.
Protocol: Briefly, a solution (100 μL) of peptide/protease molar ratio, 40:1 was made in 10 mM PBS buffer (pH 8.0) and was incubated at 37° C. Aliquots (10 μL) of the reaction solutions were taken after 1, 3 and 6 days and immediately mixed with 20 μL of 2×SDS loading buffer and boiled in a water bath to stop the reaction. For the SDS gel analysis, 10 μL of each sample was loaded to the well of a 5% stacking/18% resolving tricine gel and run at a constant current of 35 mA.
In the next data set the test system is E. coli ampC E416-7. Format: cell-based, Escherichia coli. The conditions noted are these: Table 7. The text has this:
The bacterial strains used include the Gram-positive strains Staphylococcus aureus USA300 LAC, S. epidermidis 1457, and Bacillus subtilis 168, as well as the Gram-negative isolates Escherichia coli K12 and Acinetobacter baumannii B2367-12. Additional, drug resistance strains include Gram-positive Enterococcus faecium V286-17 (VRE) and S. aureus M838-17 (MRSA) and Gram-negative E. coli E423-17, E. coli E416-17 (ampC), and P. aeruginosa E411-17. Bacteria were cultivated in tryptic soy broth (TSB) (BD Bioscience, MD).
The antibacterial activity of peptides was evaluated using a standard broth microdilution protocol with minor modifications as described (Mishra, et al. (2012) J. Am. Chem. Soc., 134:12426-12429). In brief, logarithmic phase bacterial cultures (i.e., optical density at 600 nm≈0.5) were diluted to OD600 0.001 and partitioned into a 96-well polystyrene microplate at 90 μL per well. After treatment with 10 μL of peptide solutions two fold diluted to various concentrations, microplates were incubated at 37° C. overnight and read on a ChroMate® 4300 Microplate Reader at 630 nm (GMI, Ramsey, MN). […] To study the influence of medium conditions on the antimicrobial activity of peptides against S. aureus USA300, up to 200 mM sodium chloride (NaCl), 2 mM of calcium chloride, 5-10% of human serum, mouse plasma, fluid, or supernatants of tissue homogenates were included into the assays.

For a further data set, the system named is K. pneumoniae E406-17. The experiment in a line: microbe, parasite or virus in culture. To be noted: E406-17; read-out: MIC K. pneumoniae E406-17. Format: cell-based, Klebsiella pneumoniae. A digest of the protocol:
as §1

The subject of another data set is E. coli E423-17. The data set can be described thus: microbe, parasite or virus in culture. The class given is cell-based, Escherichia coli. The conditions noted are these: E423-17; read-out: MIC E. coli E423-17. Summed up: as §2
For the next data set, the system named is E. coli ATCC 25922. The class given is cell-based, Escherichia coli. To be noted: ATCC 25922. Summed up: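 Peptides, serially diluted two-fold, were incubated overnight at 37 °C with E. coli ATCC 25922 from log-phase cultures adjusted to OD600 0.001. Turbidity at 630 nm served as the read-out in this broth microdilution format.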
Another data set relates to P. aeruginosa E411-17. The data set can be described thus: microbe, parasite or virus in culture. Format: cell-based, Pseudomonas aeruginosa. To be noted: E411-17; read-out: MIC P. aeruginosa E411-17. Summed up:
as §2

A further data set relates to E. faecium V286-17 (VRE). The experiment in a line: microbe, parasite or virus in culture. The conditions noted are these: V286-17 (VRE). Format: cell-based, Enterococcus faecium. A digest of the protocol: as §2
Data set [3] relates to S. aureus USA300. To be noted: starting template; cited from earlier work.

For orientation: HC50 means the concentration that lyses half of the red blood cells. Regarding `CC(C)C[C@@H](NC(=O)[C@@H](CC(C)C)NC(=O)[C@@H](CCCCN)NC(=O)[C@@H](CC(C)C)NC(=O)CNC(=O)[C@@H](CC(C)C)NC(=O)[C@@H](CO)NC(=O)[C@@H](CC(C)C)NC(=O)[C@@H](CC(C)C)NC(=O)[C@@H](CC(C)C)NC(=O)[C@@H](CCCCN)NC(=O)[C@@H](CC(C)C)NC(=O)CN)C(N)=O` [DFT561d, GLKLLLSLGLKLL] (H-G[dL][dK][dL][dL][dL][dS][dL]G[dL][dK][dL][dL]-NH2; N-terminus and C-terminus assumed), in the data set “Hemolytic assay”, the HC50 at 1 h was over 300 µM. Besides, the “MIC PA (P. aeruginosa PAO1)” value with P. aeruginosa PAO1 was over 25 µM. The MIC was 3.1 µM (≈ 4.28 µg/mL) in the data set with S. aureus M838-17 (MRSA); 3.1 µM (≈ 4.28 µg/mL) against S. aureus USA300 [1] (USA300); 3.1 µM (≈ 4.28 µg/mL) against S. aureus USA300 [1] (USA300, pH 6.8); 1.6 µM (≈ 2.21 µg/mL) against S. aureus USA300 [1] (USA300, pH 7.4); 1.6 µM (≈ 2.21 µg/mL) against S. aureus USA300 [1] (USA300, pH 8); over 50 µM in the data set on K. pneumoniae E406-17. For the same compound, the MIC in the data set with E. coli E423-17 and in the data set with P. aeruginosa E411-17 was over 50 µM throughout. Besides, in data set [2], the “Protease stability” value is reported as “resistant to proteases”. Moreover, the “MIC E. coli ampC E416-7” value in the data set on E. coli ampC E416-7 was over 50 µM. Besides, in the data set on E. coli ATCC 25922, the “MIC EC (E. coli ATCC 25922)” value was over 25 µM. For the same compound, the “MIC E. faecium V286-17 (VRE)” value against E. faecium V286-17 (VRE) was in the range of 3.1 to 6.25 µM.
Take temporin-SHf: the “MIC against MRSA” value in the data set on S. aureus USA300 [3] is 25 µM.
